# Measurements as given in publication PMC10065799, “High-throughput profiling of sequence recognition by tyrosine kinases and SH2 domains using bacterial peptide display” (eLife, 2023).
# How the values were obtained:
# [1] = system: EPHB2 kinase domain; experiment: pTyr-Var library bacterial peptide display kinase screen (enrichment scores); assay type: biochemical, human; conditions: sheet EPHB2;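 further: log2 fold change in enrichment of variant over reference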
# [2] = target: T1, c-Src kinase domain (Homo sapiens, UniProt P12931); experiment: as above; assay type: biochemical; conditions: sheet "Src"
# [3] = target: T1, c-Src kinase domain; experiment: ADP-Quest continuous fluorimetric kinase assay (Michaelis-Menten parameters and initial rates); assay type: biochemical
# From the text: A fluorescence-based assay from Eurofins (ADP Quest) was used to measure the Michaelis-Menten kinetic parameters for phosphorylation of the consensus peptides by purified tyrosine kinase domains. In this assay, ADP production as a result of kinase activity is coupled to the production of resorufin, a fluorophore that emits signal at 590 nm. For all experiments, the assay reactions were set up as described in the provided assay kit protocol, in a 384 well plate format. The peptide solutions were serially diluted in 100 mM Tris, pH 8.0, and the kinases were diluted to 50 nM in buffer (10 mM HEPES, 100 mM NaCl, 1 mM TCEP, 5 mM MgCl2, 10% (v/v) glycerol). The final reaction mixtures contained 10 nM of kinase with 100 μM of ATP. Reactions were initiated with the addition of 1 mM ATP into a 50 μL reaction mixture for a final concentration of 100 μM ATP. Phosphorylation reaction progress was monitored by measuring fluorescence at excitation 530 nm and emission 590 nm every 2 min at 37 °C on a plate reader (BioTek Synergy Neo 2). The fluorescence units (RFU) were converted to μM ADP by comparison to a standard curve, and the initial rates were extracted from the linear regime of the reaction progress curves. Initial rates were also measured for samples containing each kinase but lacking a peptide substrate, to account for background ATP hydrolysis. This background rate was subtracted from the rates measured in the presence of peptide. The subtracted rates were plotted as a function of substrate concentration and fit to the Michaelis-Menten equation to extract kcat and KM values.
# [4] = system: EPHB1 kinase domain; experiment: pTyr-Var library bacterial peptide display kinase screen (enrichment scores); assay type: biochemical, human; conditions: for Screen (variant relative to reference peptide, measured in the pTyr-Var library screen): sheet "EPHB1", variant seq vs reference seq, bacterial peptide display enrichment; for Screen: sheet EPHB1, effect of the variant peptide relative to its reference peptide in the pTyr-Var library screen (enrichment scores)
# [5] = target: T2, c-Abl kinase domain (Mus musculus, UniProt P00520); experiment: as above; assay type: biochemical;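 further: log2 fold change in enrichment of variant over reference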
# T2 sequence (P00520 242-493 limits assumed): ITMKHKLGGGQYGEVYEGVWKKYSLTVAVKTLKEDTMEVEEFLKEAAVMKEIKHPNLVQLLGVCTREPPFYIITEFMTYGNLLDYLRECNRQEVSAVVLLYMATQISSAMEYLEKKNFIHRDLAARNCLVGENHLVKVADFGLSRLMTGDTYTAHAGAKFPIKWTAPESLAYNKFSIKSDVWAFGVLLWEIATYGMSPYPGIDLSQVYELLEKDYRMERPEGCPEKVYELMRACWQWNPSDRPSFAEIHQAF
# [6] = system: Fer kinase domain; experiment: as above; assay type: biochemical, mouse; conditions: sheet "Fer";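 further: log2 fold change in enrichment of variant over reference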
# [7] = effect of variant peptide relative to its reference peptide in the pTyr-Var library screen (enrichment scores)
# [8] = variant peptide versus its reference peptide in the pTyr-Var library screen
# [9] = ADP-Quest assay, c-Src kinase domain 10 nM, 100 μM ATP, 37 °C, three to five replicates, error = standard error of global Michaelis-Menten fit
# [10] = effect of the variant peptide relative to its reference peptide in the pTyr-Var library screen
# [11] = effect of the variant relative to its reference peptide in the pTyr-Var library screen
# [12] = sheet "Abl", effect of variant peptide relative to its reference peptide in pTyr-Var library screen (enrichment)
# [13] = variant peptide relative to its reference peptide, pTyr-Var library screen enrichment
# [14] = fig5-data2, sheet "Abl", Screen for the variant/reference peptide pair, pTyr-Var library
# [15] = value of the variant peptide against its reference peptide in the pTyr-Var library screen with Fer
Substance,"Screen [1, 7]","Screen [2, 8]",Screen [4],"Screen [6, 15]",also measured
ADARMYGVHPW [PLP1_Y207_L210H],-2.321,-0.8602,,,
ADRLEYSRTGL [MMUT_Y287_G284R],-0.9943,,,,
"Ac-GPDEPIYEWWWIKKKG-NH2 [Fer Consensus, Fer consensus substrate peptide from X5-Y-X5 screen]",,,,,"Km [3, 9]: 8 ± 4 µM; kcat [3, 9]: 0.4±0.1 s^–1; phosphorylation of consensus peptide by c-Src (initial rate relative to cognate consensus) ([3]; low concentration: peptide 20 μM, kinase 10–50 nM, Figure 2—figure supplement 2): significant off-target activity"
"Ac-IGEGTYRTVFK-NH2 [CDK5_Y15_G16R, pTyr-Var library variant phosphosite peptide]",-2.132,,,,"Screen [2, 10]: -3.502"
CEQELYSQLVF [WAS_Y102_W97C_YF],,-0.1333,,,"Screen [1, 11]: -2.338; Screen (variant relative to reference peptide, measured in the pTyr-Var library screen) [4]: -2.23; Screen [5, 12]: -3.187; Screen [6, 13]: -0.3985"
DDFDLYGGEKF [PTPN11_Y66_Y62D_YF],,-0.3825,,,"Screen [5, 14]: -0.3703; Screen [6, 13]: 1.351"
DLHGIYQKLVI [TTN_Y21998_R21995H],,0.02812,,,"Screen [1, 11]: 1.178; Screen (variant relative to reference peptide, measured in the pTyr-Var library screen) [4]: 1.244; Screen [5, 12]: -2.013; Screen [6, 13]: 0.5861"
EPFELYCEMGS [CBL_Y371_Q367P_YF],-0.2507,,-0.3443,,
FAELVYTVFWH [ASS1_Y322_G324V],0.0379,,0.03348,-0.2764,"Screen [2, 10]: 0.03298"
FCRHNYGAVES [HLA-DRB1_Y112_V114A_YF],-2.259,,,,
FGSIMYEFVGK [SLC18A1_Y251_V249I],-1.759,-1.273,,,"Screen (variant relative to reference peptide, measured in the pTyr-Var library screen) [4]: -1.716; Screen [6, 13]: -0.674"
GNLLIYTEFGN [HGD_Y166_K171N],0.7326,,0.6139,,"Screen [2, 10]: -0.3322"
HAVFIYDICHV [TWNK_Y508_V507I_YF],,-0.8811,,,"Screen [1, 11]: 1.461; Screen (variant relative to reference peptide, measured in the pTyr-Var library screen) [4]: 1.032; Screen [6, 13]: 0.388"
HKDNNYISMWF [PAPOLG_Y432_V433I],-1.118,,-1.294,-1.378,
IMNLLYHVVGW [GBA_Y412_T408M],-0.4774,,-0.2669,-0.4668,"Screen [2, 10]: 0.1521"
ISKTWYSAEQF [CD207_Y217_P213S],-0.7343,,-0.7306,,
KAPPTYDNVLQ [CYP3A4_Y347_T349N],-1.141,,-0.1539,-0.1979,
KELALYDENWF [RPS19_Y48_P47L],4.277,,4.03,,"Screen [6, 13]: 3.889"
KKHIPYSEHKS [CSNK1G2_Y206_R207S],,,-1.865,-1.379,
LDAFIYNAAVL [GRIN2A_Y730_D731N],-1.324,,-1.471,-3.433,"Screen [2, 10]: -1.489"

Substance,"Screen [1, 7]","Screen [2, 8]",Screen [4],"Screen [6, 15]",also measured
LDVGEYCVPRG [BEX1_Y43_A40V],-0.4602,,-0.3957,,
LNPFIYSLRNC [OR1A2_Y288_W293C],,-0.4787,-1.104,-1.075,
LPHVIYCRLWC [SMAD2_Y128_R133C],1.893,1.251,,,"Screen (variant relative to reference peptide, measured in the pTyr-Var library screen) [4]: 2.05"
LTERGYSFTTK [ACTG1_Y198_T203K],1.886,,1.554,1.86,
MARDIYQASFF [LTK_Y672_R673Q_YF],1.961,,2.318,3.102,"Screen [2, 10]: 3.363"
MSSLFYANALF [HOXB7_Y6_T9A_YF],,,,-0.9977,"Screen [5, 14]: 1.131"
NSNSDYVDILP [SH2D1B_Y127_V130I],0.0762,,,,"Screen (variant relative to reference peptide, measured in the pTyr-Var library screen) [4]: -0.2012"
PLDGEYFILQI [TP53_Y327_T329I],,-0.4119,,,"Screen [1, 11]: 0.5203; Screen (variant relative to reference peptide, measured in the pTyr-Var library screen) [4]: 0.4645"
PLDGEYFTLPI [TP53_Y327_Q331P],,1.231,,,"Screen [1, 11]: 3.847; Screen (variant relative to reference peptide, measured in the pTyr-Var library screen) [4]: 3.664; Screen [6, 13]: 0.4845"
PLFGEYFTLQI [TP53_Y327_D324Y_YF],,1.11,,,"Screen [1, 11]: 0.9055; Screen (variant relative to reference peptide, measured in the pTyr-Var library screen) [4]: 1.054"
PSAELYSFALP [PDGFRB_Y716_N718Y_YF],2.567,2.409,2.14,1.182,
QNTGFYFDLFG [PTPN11_Y62_D61Y_YF],-4.029,-1.182,-3.875,,
QTPVLYAMLFH [MPZ_Y220_D224Y_YF],-1.088,,-0.7178,-0.58,"Screen [2, 10]: -0.1434"
REGKIYEFNQV [ZNF665_Y162_H157R_YF],,,,,"Screen [5, 12]: -1.605; Screen [6, 13]: -0.7739; Screen ([2]; effect of the variant peptide against its reference peptide, seen in the pTyr-Var library screen): -1.072"
SMEGLYSSAQD [CLIC5_Y111_T114A],-0.2512,,-0.2291,0.3754,"Screen [2, 10]: 0.03653"
SNKELYEKFMI [TTN_Y32175_T32171N_YF],,0.8077,,,"Screen [6, 13]: 0.5633"
TESALYGCTVV [KIAA1804_Y724_L729V],,,,0.07488,"Screen [2, 10]: -0.09726"
TSSAVYMNLAS [GATAD2B_Y317_I316V],-2.447,,-2.461,-2.177,"Screen [2, 10]: -0.9997"
VATRWYWSPEL [CDKL5_Y177_R178W],2.978,,3.423,,
